According to US8853424B2 (Japan Science and Technology Agency, priority 2008, dated 2014):
Read-outs that look alike come from different tables or passages of the source.

Key:
[1] = system: transglutaminase (TGase); experiment: Measurement of TG (TGase inhibitory activity, monodansyl cadaverine / N,N-dimethylcasein fluorescence, FDSS 3000); format: biochemical
Outline: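 Compound (1 μL of 10 mM stock) added to 0.1 mL reaction: 100 mM HEPES-NaOH pH 7.5, 1 mM CaCl2, 20 μM monodansyl cadaverine, 0.05 mg/mL N,N-dimethylcasein, 5 μg/mL TGase. Rate of fluorescence change at 340 nm measured; DMSO control set to 100; TG50 is the concentration halving activity.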

[2] = system: Truncated N-terminal huntington 150 Q-EGFP-Neuron 2a cells; experiment: Measurement of x-Fold (polyglutamine aggregation inhibitory activity); format: cell-based
Protocol: In the present invention, the polyglutamine aggregation inhibitory activity (x-Fold) can be measured, for example, by the method described in the Example.
The number of the aggregated cells, and the total number of cells were counted by Array Scan V T1 (manufactured by Cellomics, Pittuburg, USA), and the ratio of the aggregated cells to the total number of cells was determined (x-Fold). […]

[3] = system: SOC (store operated calcium channel); experiment: Measurement of SOC IC50 (thapsigargin store depletion, calcium re-addition, CHO cells); format: cell-based; conditions: read-out: SOC IC50
Protocol: The SOC (store operated calcium channel)-suppressive action can be measured by the method described in the Example and using, for example, FDSS 3000.
CHO cell culture medium was replaced with a BSS solution which is an extracellular fluidfree of calcium, the compound of the present invention was added 1 min later, and 1 μM thapsigargin was allowed to act thereon 2 min later to deplete intracellular calcium store. […]

[4] = TGase activity with compound (10 mM, 1 μL in 0.1 ml enzyme reaction solution), DMSO control taken as 100
[5] = TGase inhibitory activity value, Table 1
[6] = polyglutamine aggregation inhibitory activity, Table 1
[7] = ratio of aggregated cells to total number of cells, compound 20 μM, 20 hr, almost 1 without compound, smaller = stronger inhibition
[8] = CHO cells, 1 μM thapsigargin, 2 mM calcium chloride
[9] = Cricetulus griseus, CHO, Table 1
[10] = Cricetulus griseus, CHO, CHO cells, 1 μM thapsigargin, 2 mM calcium chloride
[11] = Cricetulus griseus, CHO, CHO cells, thapsigargin store depletion
[12] = polyglutamine aggregation, Truncated N-terminal huntington 150 Q-EGFP-Neuron 2a cells
[13] = TGase inhibitory activity measurement, unit not given

4,4′(phenyl-2-aminoethoxyboryl)diphenyl [Example 10]
TGase activity remaining (% of DMSO control = 100) [1, 4]: 7
TGase activity remaining (% of DMSO control = 100) [1, 5]: 7
x-Fold [2, 6]: 0.92
x-Fold [2, 7]: 0.92
IC50 [3, 8]: 500 nM

4,4′-((2-aminoethoxy)(3-chloro-4-methylphenyl)boryl)diphenylether [Example 249]
TGase activity remaining (% of DMSO control = 100) [1, 4]: 25
TGase activity remaining (% of DMSO control = 100) [1, 5]: 25
x-Fold [2, 6]: 0.74
x-Fold [2, 7]: 0.74
IC50 [3, 8]: 300 nM

NC(=O)CC(N)C(=O)OB(c1ccccc1)c1ccc(Oc2ccc(B(O)c3ccccc3)cc2)cc1 (single isomer, unassigned) [Example 6, (4-(phenylasparagineboryl)phenyl)(4′-(phenylhydroxyboryl)phenyl)ether]
TGase activity remaining (% of DMSO control = 100) [1, 4]: 23
TGase activity remaining (% of DMSO control = 100) ([1]; TGase inhibitory activity value, Table 1, listed as 7132): 23
x-Fold ([2]; polyglutamine aggregation inhibitory activity, Table 1, listed as 7132): 1.01
x-Fold [2, 7]: 1.01
IC50 [3, 9]: 200 nM

OB(c1ccccc1)c1ccc(Oc2ccc(B(O)c3ccccc3)cc2)cc1 [Example 3, bis(4,4′-(phenylhydroxyboryl)phenyl)ether]
TGase activity remaining (% of DMSO control = 100) [1, 4]: −20
TGase activity remaining (% of DMSO control = 100) [1, 5]: −20
x-Fold [2, 6]: 0.49
x-Fold [2, 7]: 0.49
IC50 [3, 8]: 500 nM

OB(c1ccccc1)c1cccc(COCc2cccc(B(O)c3ccccc3)c2)c1 [Example 7, bis(3,3′-(phenylhydroxyboryl)benzyl)ether]
TGase activity remaining (% of DMSO control = 100) [1, 4]: 14
x-Fold [2, 7]: 1.03
IC50 [3, 8]: 200 nM

Cc1ccc(B(OCc2ccccn2)c2ccc(C)c(Cl)c2)cc1Cl [Example 215]
x-Fold [2, 6]: 1.03
x-Fold [2, 7]: 1.03
IC50 [3, 10]: 2000 nM
IC50 [3, 9]: 2000 nM

CC1[NH2+][B-](c2ccccc2)(c2ccccc2)OC1=O (stereo not drawn) [Example 258, diphenyl(alaninate-O,N)borane]
TGase activity remaining (% of DMSO control = 100) [1, 4]: 110
TGase activity remaining (% of DMSO control = 100) [1, 5]: 110
IC50 [3, 10]: 5000 nM
IC50 [3, 9]: 5000 nM

OB(c1ccccc1)c1ccc(COCc2cccc(B(O)c3ccccc3)c2)cc1 [Example 329, (3-(phenylhydroxyboryl)benzyl)(4-(phenylhydroxyboryl)benzyl)ether]
TGase activity remaining (% of DMSO control = 100) [1, 4]: 81
TGase activity remaining (% of DMSO control = 100) [1, 5]: 81
IC50 [3, 10]: 200 nM
IC50 [3, 9]: 200 nM

OB(c1ccccc1)c1ccc(COc2ccc(B(O)c3ccccc3)cc2)cc1 [Example 370, (4-phenylhydroxyborylphenyl)(4′-phenylhydroxyborylbenzyl)ether]
x-Fold [2, 6]: 0.76
x-Fold [2, 7]: 0.76
IC50 [3, 10]: 2000 nM
IC50 [3, 9]: 2000 nM

OB(c1ccc(COc2ccc(B(O)c3ccc(C(F)(F)F)cc3)cc2)cc1)c1ccc(C(F)(F)F)cc1 [Example 372, (4-trifluoromethylphenylhydroxyborylphenyl)(4′-trifluoromethylphenylhydroxyborylbenzyl)ether]
x-Fold [2, 6]: 0.86
x-Fold [2, 7]: 0.86
IC50 [3, 10]: 1000 nM
IC50 [3, 9]: 1000 nM

NCCOB(c1ccc(COc2ccc(B(OCCN)c3ccc(C(F)(F)F)cc3)cc2)cc1)c1ccc(C(F)(F)F)cc1 [Example 373, (4-trifluoromethylphenylaminoethoxyborylphenyl)(4′-trifluoromethylphenylaminoethoxyborylbenzyl)ether]
x-Fold [2, 6]: 0.84
x-Fold [2, 7]: 0.84
IC50 [3, 10]: 2000 nM
IC50 [3, 9]: 2000 nM

CN(C)CCOB(c1ccccc1)c1cccc(COCc2cccc(B(OCCN(C)C)c3ccccc3)c2)c1 [Example 403, bis(3,3′-(phenyl-N,N-dimethylaminoethoxyboryl)benzyl)ether]
x-Fold ([2]; polyglutamine aggregation, Truncated N-terminal huntington 150 Q-EGFP-Neuron 2a cells, listed as 2022): 1.14
x-Fold [2, 7]: 1.14
IC50 [3, 10]: 2000 nM
IC50 [3, 11]: 2000 nM

NCCSB(c1ccccc1)c1cccc(COCc2cccc(B(SCCN)c3ccccc3)c2)c1 [Example 405, bis(3,3′-(phenyl-aminoethylthioboryl)benzyl)ether]
x-Fold [2, 12]: 0.86
x-Fold [2, 7]: 0.86
IC50 [3, 10]: 500 nM
IC50 [3, 11]: 500 nM

c1ccc(B(OCCN2CCCCC2)c2ccc(COCc3ccc(B(OCCN4CCCCC4)c4ccccc4)cc3)cc2)cc1 [Example 459, bis(4,4′-(phenyl-1-piperidylethoxyboryl)benzyl)ether]
TGase activity remaining (% of DMSO control = 100) [1, 4]: 80
TGase activity remaining (% of DMSO control = 100) [1, 13]: 80
x-Fold [2, 12]: 1.03
x-Fold [2, 7]: 1.03

c1ccc(B(OCCN2CCCCC2)c2cccc(COCc3cccc(B(OCCN4CCCCC4)c4ccccc4)c3)c2)cc1 [Example 466, bis(3,3′-(phenyl-1-piperidylethoxyboryl)benzyl)ether]
TGase activity remaining (% of DMSO control = 100) [1, 4]: 71
TGase activity remaining (% of DMSO control = 100) [1, 13]: 71
x-Fold [2, 12]: 1.04
x-Fold [2, 7]: 1.04

Cc1ccc2cccc(OB(c3ccccc3)c3ccc(Oc4ccc(B(Oc5cccc6ccc(C)nc56)c5ccccc5)cc4)cc3)c2n1 [Example 477, bis(4,4′-(phenyl-2-methyl-8-quinolinooxyboryl)phenyl)ether]
TGase activity remaining (% of DMSO control = 100) [1, 4]: 97
TGase activity remaining (% of DMSO control = 100) [1, 13]: 97
x-Fold [2, 12]: 1.02
x-Fold [2, 7]: 1.02

c1ccc(B(OCC2CCCN2)c2ccc3sc4ccc(B(OCC5CCCN5)c5ccccc5)cc4c3c2)cc1 (stereo not drawn) [Example 483, 2,8-di(phenyl 2-pyrrolidinomethoxyboryl)dibenzothiophene]
TGase activity remaining (% of DMSO control = 100) [1, 4]: 107
TGase activity remaining (% of DMSO control = 100) [1, 13]: 107
x-Fold [2, 12]: 0.73
x-Fold [2, 7]: 0.73

NCCOB(c1ccsc1)c1ccc2sc3ccc(B(OCCN)c4ccsc4)cc3c2c1 [Example 485, 2,8-di(3-thiophenylaminoethoxyboryl)dibenzothiophene]
TGase activity remaining (% of DMSO control = 100) [1, 4]: 76
TGase activity remaining (% of DMSO control = 100) [1, 13]: 76
x-Fold [2, 12]: 0.98
x-Fold [2, 7]: 0.98

CCCCB(CCCC)OC(=O)C(N)Cc1ccccc1 (stereo not drawn) [Example 493, dibutyl(phenylalanine-O,N)borane]
TGase activity remaining (% of DMSO control = 100) [1, 4]: 106
TGase activity remaining (% of DMSO control = 100) [1, 13]: 106
x-Fold [2, 12]: 1.03
x-Fold [2, 7]: 1.03

OB(c1ccccc1)c1cccc(B(O)c2ccccc2)c1 [compound 554]
IC50 [3, 9]: > 20000 nM

NC(CCC(=O)O)C(=O)OB(c1ccccc1)c1ccc(Oc2ccc(B(OC(=O)C(N)CCC(=O)O)c3ccc(CO)cc3)cc2)cc1 (stereo not drawn) [compound 1036]
IC50 [3, 9]: 300 nM

Cc1ccc(B(OC(=O)C(N)CC(N)=O)c2ccc(C)c(Cl)c2)cc1Cl (stereo not drawn) [compound 4103]
IC50 [3, 9]: 300 nM

FITC aminoethylaminoethyl diphenylborinate [Example 161]
TGase activity remaining (% of DMSO control = 100) [1, 4]: 6
TGase activity remaining (% of DMSO control = 100) [1, 5]: 6
x-Fold [2, 6]: 0.99
x-Fold [2, 7]: 0.99

bis(3-chloro-4-methylphenyl hydroxyborylbenzyl)ether [Example 125]
TGase activity remaining (% of DMSO control = 100) [1, 4]: 113
TGase activity remaining (% of DMSO control = 100) [1, 5]: 113
IC50 [3, 8]: 10000 nM

bis((4,4′-phenyl methylaminoethoxyboryl)benzyloxybenzyl)methylaminoethoxyborane [Example 190]
TGase activity remaining (% of DMSO control = 100) [1, 4]: 99
TGase activity remaining (% of DMSO control = 100) [1, 5]: 99
x-Fold [2, 6]: 1.05
x-Fold [2, 7]: 1.05

bis((4,4′-phenyldimethylaminoethoxyboryl)benzyloxybenzyl)dimethylamino-ethoxyborane [Example 191]
TGase activity remaining (% of DMSO control = 100) [1, 4]: 85
TGase activity remaining (% of DMSO control = 100) [1, 5]: 85
x-Fold [2, 6]: 1.04
x-Fold [2, 7]: 1.04

di(3-chloro-4-methylphenyl)(2,6-diaminopimelinate-O,N)borane [Example 286]
TGase activity remaining (% of DMSO control = 100) [1, 4]: 104
TGase activity remaining (% of DMSO control = 100) [1, 5]: 104
x-Fold [2, 6]: 0.93
x-Fold [2, 7]: 0.93

di(3-chloro-6-methyl-phenyl)(argininate-O,N)borane [Example 156]
TGase activity remaining (% of DMSO control = 100) [1, 4]: 91
TGase activity remaining (% of DMSO control = 100) [1, 5]: 91
x-Fold [2, 6]: 1.08
x-Fold [2, 7]: 1.08

diphenyl(FITC-2,6-diaminocapronate-O,N)borane [Example 177]
TGase activity remaining (% of DMSO control = 100) [1, 4]: 28
TGase activity remaining (% of DMSO control = 100) [1, 5]: 28
x-Fold [2, 6]: 1.00
x-Fold [2, 7]: 1.00

diphenyl(tryptophanate-O,N)borane [Example 260]
TGase activity remaining (% of DMSO control = 100) [1, 4]: 106
TGase activity remaining (% of DMSO control = 100) [1, 5]: 106
x-Fold [2, 6]: 0.89
x-Fold [2, 7]: 0.89

tetramethylrhodamine aminoethylaminoethyl diphenylborinate [Example 162]
TGase activity remaining (% of DMSO control = 100) [1, 4]: −2
TGase activity remaining (% of DMSO control = 100) [1, 5]: −2
x-Fold [2, 6]: 0.85
x-Fold [2, 7]: 0.85
